Like-named read-outs stand apart in the source and are kept apart here.
How the values were obtained:
[1] = tested on: Key Broadleaf Weed and Crop Species; test: Post-emergent Test II herbicidal activity (Table 15); type: in vivo; settings: post-emergence, 336 h, 14 d; for pest or weed control at 35 g/ha: 35 g ai/ha; for pest or weed control at 70 g/ha: 70 g ai/ha; for pest or weed control at 140 g/ha: 140 g ai/ha
Method in brief: (§1)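 Plants grown in greenhouse (~15 h photoperiod, 23-29 °C day, 22-28 °C night) to first or second true leaf stage, then sprayed post-emergence at 187 L/ha with a high rate and 1/2×, 1/4×, 1/8× and 1/16× dilutions. Injury scored visually after 14 d, 0-100% versus untreated plants.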

[2] = tested on: Key Grass and Sedge Weeds as well as Grass Crops; test: Post-emergent Test II herbicidal activity (Table 16); type: in vivo; settings: post-emergence, 336 h, 14 d; for pest or weed control at 35 g/ha: 35 g ai/ha; for pest or weed control at 70 g/ha: 70 g ai/ha; for pest or weed control at 140 g/ha: 140 g ai/ha
Method in brief: as §1

[3] = Abutilon theophrasti, velvetleaf (Abutilon theophrasti), read-out: Visual Growth Reduction (%) 14 Days After Application, ABUTH
[4] = Amaranthus retroflexus, redroot pigweed (Amaranthus retroflexus), read-out: Visual Growth Reduction (%) 14 Days After Application, AMARE
[5] = Brassica napus, oilseed rape, canola (Brassica napus), read-out: Visual Growth Reduction (%) 14 Days After Application, BRSNN
[6] = Chenopodium album, lambsquarters (Chenopodium album), read-out: Visual Growth Reduction (%) 14 Days After Application, CHEAL
[7] = Euphorbia heterophylla, wild poinsettia (Euphorbia heterophylla), read-out: Visual Growth Reduction (%) 14 Days After Application, EPHHL
[8] = Helianthus annuus, sunflower (Helianthus annuus), read-out: Visual Growth Reduction (%) 14 Days After Application, HELAN
[9] = Cyperus esculentus, yellow nutsedge (Cyperus esculentus), read-out: Visual Growth Reduction (%) 14 Days After Application, CYPES
[10] = Echinochloa crus-galli, barnyardgrass (Echinochloa crus-galli), read-out: Visual Growth Reduction (%) 14 Days After Application, ECHCG
[11] = Oryza sativa, rice (Oryza sativa), read-out: Visual Growth Reduction (%) 14 Days After Application, ORYSA
[12] = Setaria faberi, giant foxtail (Setaria faberi), read-out: Visual Growth Reduction (%) 14 Days After Application, SETFA
[13] = Triticum aestivum, wheat, spring (Triticum aestivum), read-out: Visual Growth Reduction (%) 14 Days After Application, TRZAS
[14] = Zea mays, maize, corn (Zea mays), read-out: Visual Growth Reduction (%) 14 Days After Application, ZEAMX

| Compound | melting point [°C] | pest or weed control at 35 g/ha [1, 3] [%] | pest or weed control at 70 g/ha [1, 3] [%] | pest or weed control at 140 g/ha [1, 3] [%] | pest or weed control at 35 g/ha [1, 4] [%] | pest or weed control at 70 g/ha [1, 4] [%] | pest or weed control at 140 g/ha [1, 4] [%] | pest or weed control at 35 g/ha [1, 5] [%] | pest or weed control at 70 g/ha [1, 5] [%] | pest or weed control at 140 g/ha [1, 5] [%] | pest or weed control at 35 g/ha [1, 6] [%] | pest or weed control at 70 g/ha [1, 6] [%] | pest or weed control at 140 g/ha [1, 6] [%] | pest or weed control at 35 g/ha [1, 7] [%] | pest or weed control at 70 g/ha [1, 7] [%] | pest or weed control at 140 g/ha [1, 7] [%] | pest or weed control at 35 g/ha [1, 8] [%] | pest or weed control at 70 g/ha [1, 8] [%] | pest or weed control at 140 g/ha [1, 8] [%] | pest or weed control at 35 g/ha [2, 9] [%] | other results |
| --- | --- | --- | --- | --- | --- | --- | --- | --- | --- | --- | --- | --- | --- | --- | --- | --- | --- | --- | --- | --- | --- |
| Nc1nc(-c2ccc(Cl)c3occc23)nc(C(=O)O)c1Cl [Compound 2.23] | 173 to 174.5 | 0 to 29 | 0 to 29 | 0 to 29 | 95 to 100 | 95 to 100 | 95 to 100 | 0 to 29 | 0 to 29 | 0 to 29 | 95 to 100 | 95 to 100 | 95 to 100 | 0 to 29 | 0 to 29 | 0 to 29 | 85 to 94 | 95 to 100 | 95 to 100 | 0 to 29 | pest or weed control at 70 g/ha [2, 9]: 0 to 29%; pest or weed control at 140 g/ha [2, 9]: 0 to 29%; pest or weed control at 35 g/ha [2, 10]: 0 to 29%; pest or weed control at 70 g/ha [2, 10]: 0 to 29%; pest or weed control at 140 g/ha [2, 10]: 0 to 29%; pest or weed control at 35 g/ha [2, 11]: 0 to 29%; pest or weed control at 70 g/ha [2, 11]: 0 to 29%; pest or weed control at 140 g/ha [2, 11]: 0 to 29%; pest or weed control at 35 g/ha [2, 12]: 0 to 29%; pest or weed control at 70 g/ha [2, 12]: 0 to 29%; pest or weed control at 140 g/ha [2, 12]: 0 to 29%; pest or weed control at 35 g/ha [2, 13]: 0 to 29%; pest or weed control at 70 g/ha [2, 13]: 0 to 29%; pest or weed control at 140 g/ha [2, 13]: 0 to 29%; pest or weed control at 35 g/ha [2, 14]: 0 to 29%; pest or weed control at 70 g/ha [2, 14]: 0 to 29%; pest or weed control at 140 g/ha [2, 14]: 0 to 29% |
| COC(=O)c1nc(-c2ccc(Cl)c3ccoc23)c(F)c(N)c1Cl [Compound 2.24] | 167 | 75 to 84 | 75 to 84 | 95 to 100 | 95 to 100 | 95 to 100 | 95 to 100 | 60 to 74 | 75 to 84 | 75 to 84 | 95 to 100 | 95 to 100 | 95 to 100 | 60 to 74 | 75 to 84 | 75 to 84 | 75 to 84 | 75 to 84 | 85 to 94 | 60 to 74 | pest or weed control at 70 g/ha [2, 9]: 75 to 84%; pest or weed control at 140 g/ha [2, 9]: 85 to 94%; pest or weed control at 35 g/ha [2, 10]: 0 to 29%; pest or weed control at 70 g/ha [2, 10]: 0 to 29%; pest or weed control at 140 g/ha [2, 10]: 0 to 29%; pest or weed control at 35 g/ha [2, 11]: 0 to 29%; pest or weed control at 70 g/ha [2, 11]: 0 to 29%; pest or weed control at 140 g/ha [2, 11]: 0 to 29%; pest or weed control at 35 g/ha [2, 12]: 0 to 29%; pest or weed control at 70 g/ha [2, 12]: 0 to 29%; pest or weed control at 140 g/ha [2, 12]: 0 to 29%; pest or weed control at 35 g/ha [2, 13]: 0 to 29%; pest or weed control at 70 g/ha [2, 13]: 0 to 29%; pest or weed control at 140 g/ha [2, 13]: 0 to 29%; pest or weed control at 35 g/ha [2, 14]: 0 to 29%; pest or weed control at 70 g/ha [2, 14]: 30 to 44%; pest or weed control at 140 g/ha [2, 14]: 60 to 74% |
| COC(=O)c1nc(-c2ccc(Cl)c3ccoc23)cc(N)c1Cl [Compound 2.25] | 169 | 75 to 84 | 75 to 84 | 95 to 100 | 95 to 100 | 95 to 100 | 95 to 100 | 0 to 29 | 45 to 59 | 75 to 84 | 95 to 100 | 95 to 100 | 95 to 100 | 0 to 29 | 75 to 84 | 85 to 94 | 0 to 29 | 30 to 44 | 85 to 94 | 0 to 29 | pest or weed control at 70 g/ha [2, 9]: 30 to 44%; pest or weed control at 140 g/ha [2, 9]: 75 to 84%; pest or weed control at 35 g/ha [2, 10]: 0 to 29%; pest or weed control at 70 g/ha [2, 10]: 0 to 29%; pest or weed control at 140 g/ha [2, 10]: 0 to 29%; pest or weed control at 35 g/ha [2, 11]: 0 to 29%; pest or weed control at 70 g/ha [2, 11]: 0 to 29%; pest or weed control at 140 g/ha [2, 11]: 0 to 29%; pest or weed control at 35 g/ha [2, 12]: 0 to 29%; pest or weed control at 70 g/ha [2, 12]: 0 to 29%; pest or weed control at 140 g/ha [2, 12]: 0 to 29%; pest or weed control at 35 g/ha [2, 13]: 0 to 29%; pest or weed control at 70 g/ha [2, 13]: 0 to 29%; pest or weed control at 140 g/ha [2, 13]: 0 to 29%; pest or weed control at 35 g/ha [2, 14]: 0 to 29%; pest or weed control at 70 g/ha [2, 14]: 0 to 29%; pest or weed control at 140 g/ha [2, 14]: 45 to 59% |

From US20170050957A1, “4-AMINO-6-(HETEROCYCLIC)PICOLINATES AND 6-AMINO-2-(HETEROCYCLIC)PYRIMIDINE-4-CARBOXYLATES AND THEIR USE AS HERBICIDES” (Dow AgroSciences LLC, priority 2013, published 2017)
